pEC50: −log10 of the molar value.
Test system: SARS-CoV-2 strain PIK35
Test: microbe, parasite or virus in culture
Assay type: cell-based
Details: Severe acute respiratory syndrome coronavirus 2, Vero, 120 h

Structure (SMILES): O=c1nc(NO)ccn1[C@@H]1O[C@H](CO)[C@@H](O)[C@H]1O [N^4-hydroxycytidine]
- pEC50: < 5.30

— paper PMC9165921 (Molecular Biology, 2022)
